Measurements published in patent US11202787B2, “Use of ACTH in assessment and prophylactic treatment of hypokalemia associated with glucocorticoid receptor modulator treatment of Cushing's syndrome patients” (Corcept Therapeutics, Inc., priority 2018, dated 2021).

What was measured:
Type in all cases: in vivo, human
[1] = tested on: psychotic major depression (PMD) subjects; experiment: Double blind psychotic major depression (PMD) trials: hypokalemia
From the text: (§1) Clinically meaningful hypokalemia (≤3.1) has been reported in 16 of 821 (1.9%) mifepristone treated subjects (12 in completed double blind PMD trials, and 4 in a completed Alzheimer's trial), and in 5 of 626 (0.8%) placebo treated subjects in completed PMD trials.

[2] = tested on: subjects in an Alzheimer's study; experiment: Alzheimer's study: hypokalemia
From the text: as §1

ACTH = ACTH levels during mifepristone treatment of Cushing's syndrome patients; conditions: for ACTH Visit Change Values from Baseline / Ratio of ACTH Visit Change Values from Baseline per Baseline (ACTH_CHG/ACTH Baseline): Mean ± SD
From the text: The term “measuring the level,” in the context of cortisol, ACTH, mifepristone, or other compounds, refers to determining, detecting, or quantitating the amount, level, or concentration of, for example, cortisol, ACTH, mifepristone, or other compound in a sample obtained from a subject. Plasma or serum samples are often used for measuring ACTH or cortisol level.
The types of samples that are suitable for ACTH determination can be serum, plasma, saliva, urine, or any other biological fluid taken from a subject. In preferred embodiments, the sample is a serum sample, or is a plasma sample. The level of ACTH can be measured using various methods, including but not limited to, immunoassays, e.g., competitive immunoassay, radioimmunoassay (MA), immunofluorometric enzyme assay, and ELISA; competitive protein-binding assays; liquid chromatography (e.g., HPLC); and mass spectrometry, e.g., high-performance liquid chromatography/triple quadrupole-mass spectrometry (LC-MS/MS). Commercial kits for measuring ACTH are readily available, e.g., from Mayo clinic (Test ID: ACTH), Siemens Healthcare Global (Immulite® 2000 ACTH assay), and Roche Molecular Diagnostics (Catalog No. 03255751190). In preferred embodiments, ACTH levels are measured using a radioimmunoassay (RIA), most preferable a two-site MA, such as performed by Quest Diagnostics (Secaucus, N.J. 07094).
The Cushing's syndrome study reported herein was conducted in accordance with the Declaration of Helsinki and Good Clinical Practice (GCP) according to International Conference on Harmonization (ICH) guidelines.
Dosing Schedule Dosing was started with 300 mg of mifepristone once per day for 14 days. After 14 days, if no clinical improvement was seen but the drug was well tolerated, the dose of mifepristone was increased to 600 mg once per day. After 4 weeks of dosing at 600 mg once per day, if no clinical improvement was seen but the drug was well tolerated, the dose was increased to 900 mg once per day. Dose escalation was based on weight with the maximum dose no higher than 20 mg/kg/day. […] After 4 weeks of dosing at 900 mg once per day, if no clinical improvement was seen but the drug was well tolerated, the dose was increased to 1200 mg once per day. Study duration was 24 weeks.
Potassium levels were obtained on every subject at either screening or the pre-drug administration baseline visit, and then also at every scheduled post-baseline visit. Potassium levels post-baseline were therefore obtained as early as day 7 and through day 210 (week 30 was the last visit and was the 6 week follow-up visit). ACTH, and cortisol were measured at six visits (week 2 (day 14), week 6 (day 42), week 10 (day 70), week 16 (day 112), and week 24 (day 168) week 6 follow-up (day 210)).

[3] = Day 210 (6 week follow-up), Hypokalemic
[4] = Day 210 (6 week follow-up), Non-Hypokalemic

Clinically meaningful hypokalemia (≤3.1) ([1]; 16 of 821 mifepristone treated subjects, PMD and Alzheimer's trials together): 1.9%
Hypokalemia in the range of 2.4 to 3.4 mEq/L ([1]; 61 of 782 mifepristone treated subjects): 7.8%
Clinically meaningful hypokalemia (≤3.1), subjects ([1]; completed double blind PMD trials): 12
Clinically meaningful hypokalemia (≤3.1), subjects ([2]; completed Alzheimer's trial): 4
Hypokalemia in the range of 2.8 to 3.5 mEq/L ([2]; out of 33 subjects, 300 mg per day for 16 weeks): 9 subjects
Structure (SMILES): CC#C[C@]1(O)CC[C@H]2[C@@H]3CCC4=CC(=O)CCC4=C3[C@@H](c3ccc(N(C)C)cc3)C[C@@]21C [mifepristone, 11β-(4-dimethylaminophenyl)-17β-hydroxy-17α-(1-propynyl)-estra-4,9-dien-3-one]
ACTH increase during mifepristone treatment (ACTH; 43 subjects with Cushing's disease): about two-fold
ACTH Visit Change Values from Baseline (ACTH; Day 14, Hypokalemic): 60.8 ± 99.6 (8) ng/L
Ratio of ACTH Visit Change Values from Baseline per Baseline (ACTH_CHG/ACTH Baseline) (ACTH; Day 14, Hypokalemic): 1.87 ± 1.32 (8)
ACTH Visit Change Values from Baseline (ACTH; Day 14, Non-Hypokalemic): 30.6 ± 26.9 (38) ng/L
Ratio of ACTH Visit Change Values from Baseline per Baseline (ACTH_CHG/ACTH Baseline) (ACTH; Day 14, Non-Hypokalemic): 1.77 ± 0.72 (38)
ACTH Visit Change Values from Baseline (ACTH; Day 42, Hypokalemic): 86.3 ± 58.2 (6) ng/L
Ratio of ACTH Visit Change Values from Baseline per Baseline (ACTH_CHG/ACTH Baseline) (ACTH; Day 42, Hypokalemic): 2.50 ± 0.61 (6)
ACTH Visit Change Values from Baseline (ACTH; Day 42, Non-Hypokalemic): 40.6 ± 54.7 (35) ng/L
Ratio of ACTH Visit Change Values from Baseline per Baseline (ACTH_CHG/ACTH Baseline) (ACTH; Day 42, Non-Hypokalemic): 2.02 ± 0.97 (35)
ACTH Visit Change Values from Baseline (ACTH; Day 70, Hypokalemic): 211.8 ± 147.5 (6) ng/L
Ratio of ACTH Visit Change Values from Baseline per Baseline (ACTH_CHG/ACTH Baseline) (ACTH; Day 70, Hypokalemic): 4.08 ± 2.51 (6)
ACTH Visit Change Values from Baseline (ACTH; Day 70, Non-Hypokalemic): 49.2 ± 22.5 (30) ng/L
Ratio of ACTH Visit Change Values from Baseline per Baseline (ACTH_CHG/ACTH Baseline) (ACTH; Day 70, Non-Hypokalemic): 2.06 ± 1.01 (30)
ACTH Visit Change Values from Baseline (ACTH; Day 112, Hypokalemic): 101.4 ± 159.6 (9) ng/L
Ratio of ACTH Visit Change Values from Baseline per Baseline (ACTH_CHG/ACTH Baseline) (ACTH; Day 112, Hypokalemic): 2.53 ± 1.49 (9)
ACTH Visit Change Values from Baseline (ACTH; Day 112, Non-Hypokalemic): 70.2 ± 82.2 (23) ng/L
Ratio of ACTH Visit Change Values from Baseline per Baseline (ACTH_CHG/ACTH Baseline) (ACTH; Day 112, Non-Hypokalemic): 2.47 ± 1.87 (23)
ACTH Visit Change Values from Baseline (ACTH; Day 168, Hypokalemic): 151.2 ± 166.5 (5) ng/L
Ratio of ACTH Visit Change Values from Baseline per Baseline (ACTH_CHG/ACTH Baseline) (ACTH; Day 168, Hypokalemic): 3.30 ± 2.54 (5)
ACTH Visit Change Values from Baseline (ACTH; Day 168, Non-Hypokalemic): 48.2 ± 73.8 (37) ng/L
Ratio of ACTH Visit Change Values from Baseline per Baseline (ACTH_CHG/ACTH Baseline) (ACTH; Day 168, Non-Hypokalemic): 2.08 ± 1.31 (37)
ACTH Visit Change Values from Baseline (ACTH; [3]): 113.7 ± 167.7 (3) ng/L
Ratio of ACTH Visit Change Values from Baseline per Baseline (ACTH_CHG/ACTH Baseline) (ACTH; [3]): 1.36 ± 0.46 (3)
ACTH Visit Change Values from Baseline (ACTH; [4]): 13.4 ± 34.0 (37) ng/L
Ratio of ACTH Visit Change Values from Baseline per Baseline (ACTH_CHG/ACTH Baseline) (ACTH; [4]): 1.33 ± 0.61 (37)
rise in ACTH levels following an initial increase in mifepristone dose (FIG. 1) (ACTH; patients who did not experience hypokalemia): about 25 pg/mL
